Structures are written as SMILES. Where two headings read alike, the source gives them in different places. Where only a bound is given, the exact number is not on record here.

Assay type in all cases: cell-based
The target in one experiment is T1, hGIPR (Homo sapiens, UniProt P48546).
T1 construct: expressed in transfected cells
T1 sequence (P48546 22-466): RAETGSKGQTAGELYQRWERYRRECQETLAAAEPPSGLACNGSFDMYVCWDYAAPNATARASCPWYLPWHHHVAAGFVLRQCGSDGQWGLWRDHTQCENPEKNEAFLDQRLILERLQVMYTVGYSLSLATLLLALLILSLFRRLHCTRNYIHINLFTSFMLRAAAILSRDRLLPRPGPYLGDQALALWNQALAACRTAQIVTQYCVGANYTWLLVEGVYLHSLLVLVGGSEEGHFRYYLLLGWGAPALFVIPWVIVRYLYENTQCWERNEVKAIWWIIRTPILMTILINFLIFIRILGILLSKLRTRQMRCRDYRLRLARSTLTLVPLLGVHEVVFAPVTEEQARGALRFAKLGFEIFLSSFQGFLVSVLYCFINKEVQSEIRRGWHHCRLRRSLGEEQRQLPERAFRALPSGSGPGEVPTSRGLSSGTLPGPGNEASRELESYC
In words: Functional cAMP formation (HTRF) in HEK-293 clonal cells expressing hGIPR, 0.1% bovine casein, without or with 1.0% human serum albumin. The settings on record: for EC50: geometric mean. The method in brief: (§1)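 Cells were stimulated with peptide for 30 min at 37° C, then intracellular cAMP was measured by competitive HTRF (665/620 nm ratio) and converted to nM using a cAMP standard curve. Relative EC50 and Emax came from four-parameter logistic fits of percent maximal response against peptide concentration.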
(In general: cAMP levels reflect the balance of adenylyl cyclase and phosphodiesterase activity.)

Another experiment has as its target T2, hGCGR (Homo sapiens, UniProt P47871).
T2 construct: expressed in transfected cells
In words: Functional cAMP formation (HTRF) in HEK-293 clonal cells expressing hGCGR, 0.1% bovine casein, without or with 1.0% human serum albumin. The settings on record: geometric mean. The method in brief: as §1

Another experiment addresses hGLP-1R (Homo sapiens, UniProt P43220). In words: Functional cAMP formation (HTRF) in HEK-293 clonal cells expressing hGLP-1R, 0.1% bovine casein, without or with 1.0% human serum albumin. Set-up: expressed in transfected cells. The following applies: for EC50: geometric mean; for Emax: 0.1% bovine casein, arithmetic mean. Put shortly:
as §1

The mark [1] stands for this setting: 0.1% bovine casein and 1.0% human serum albumin, 37° C., read-out: hGIPR EC50, nM (SEM, n).
[2] abbreviates: HEK293, 0.1% bovine casein and 1.0% human serum albumin, 37° C., percent of maximal response to GIP(1-42)NH2, read-out: hGIPR Emax, % ± SEM.
Where [3] appears, read: HEK293, percent of maximal response to GIP(1-42)NH2, 37° C., 0.1% bovine casein, arithmetic mean, read-out: hGIPR Emax, % ± SEM.
Setting [4] is: 0.1% bovine casein and 1.0% human serum albumin, 37° C., read-out: hGCGR EC50, nM (SEM, n).
The mark [5] stands for this setting: cAMP, incubated at 37° C., 0.1% bovine casein (no human serum albumin), read-out: hGCGR EC50, nM (SEM, n).
[6] abbreviates: HEK293, percent of maximal response to GLP-1(7-36)NH2, 37° C., read-out: hGLP-1R Emax, % ± SEM.

T2 sequence (P47871 26-477): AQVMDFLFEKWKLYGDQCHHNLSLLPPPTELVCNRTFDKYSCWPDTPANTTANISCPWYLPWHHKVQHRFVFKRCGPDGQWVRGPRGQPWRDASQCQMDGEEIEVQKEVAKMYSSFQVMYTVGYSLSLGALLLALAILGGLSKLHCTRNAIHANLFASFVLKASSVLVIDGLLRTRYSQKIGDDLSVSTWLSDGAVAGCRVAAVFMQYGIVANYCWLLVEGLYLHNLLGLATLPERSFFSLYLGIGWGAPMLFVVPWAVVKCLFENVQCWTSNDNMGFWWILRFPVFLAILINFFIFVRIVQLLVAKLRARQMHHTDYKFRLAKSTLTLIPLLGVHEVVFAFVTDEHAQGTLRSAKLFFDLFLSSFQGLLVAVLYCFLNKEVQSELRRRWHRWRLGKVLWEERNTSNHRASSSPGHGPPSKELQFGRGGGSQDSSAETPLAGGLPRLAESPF
Chain of hGLP-1R (P43220 24-463): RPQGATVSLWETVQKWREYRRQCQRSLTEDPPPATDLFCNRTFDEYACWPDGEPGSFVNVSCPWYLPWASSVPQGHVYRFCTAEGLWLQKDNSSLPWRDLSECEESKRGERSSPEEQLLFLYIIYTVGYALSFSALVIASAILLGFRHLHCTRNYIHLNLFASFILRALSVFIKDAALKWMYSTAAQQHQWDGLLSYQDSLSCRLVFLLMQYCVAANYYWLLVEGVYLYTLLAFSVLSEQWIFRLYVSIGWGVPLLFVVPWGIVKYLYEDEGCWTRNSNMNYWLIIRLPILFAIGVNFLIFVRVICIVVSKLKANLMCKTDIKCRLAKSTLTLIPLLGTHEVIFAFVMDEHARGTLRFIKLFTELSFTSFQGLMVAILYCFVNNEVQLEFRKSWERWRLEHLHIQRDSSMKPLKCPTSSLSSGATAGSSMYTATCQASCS

In the case of `CC[C@H](C)[C@H](NC(=O)[C@H](CC(C)C)NC(=O)[C@H](CCCCNC(=O)COCCOCCNC(=O)COCCOCCNC(=O)CC[C@H](NC(=O)CCCc1ccc(C(C)(C)C)cc1)C(=O)O)NC(=O)[C@@H](CCC(=O)O)NC(=O)[C@@H](NC(=O)[C@H](Cc1ccccc1)NC(=O)[C@H](CCC(=O)O)NC(=O)C(C)(C)NC(=O)[C@H](CCC(N)=O)NC(=O)[C@H](C)NC(=O)[C@H](CCCCNC(=O)COCCOCCNC(=O)COCCOCCNC(=O)CC[C@H](NC(=O)CCCc1ccc(C(C)(C)C)cc1)C(=O)O)NC(=O)[C@H](CCCN)NC(=O)[C@H](CC(=O)O)NC(=O)[C@H](CC(C)C)NC(=O)[C@](C)(CC(C)C)NC(=O)[C@@H](NC(=O)[C@H](CO)NC(=O)[C@H](Cc1ccncc1)NC(=O)[C@H](CC(=O)O)NC(=O)[C@H](CO)NC(=O)[C@@H](NC(=O)[C@](C)(Cc1ccccc1F)NC(=O)[C@@H](NC(=O)CNC(=O)[C@H](CCC(=O)O)NC(=O)C(C)(C)NC(=O)[C@@H](N)Cc1ccc(O)cc1)[C@@H](C)O)[C@@H](C)O)[C@@H](C)CC)[C@@H](C)CC)C(=O)N[C@@H](CCC(=O)O)C(=O)NCC(=O)NCC(=O)N1CCC[C@H]1C(=O)N[C@@H](CO)C(=O)N[C@@H](CO)C(=O)NCC(=O)N[C@@H](C)C(=O)N1CCC[C@H]1C(=O)N1CCC[C@H]1C(=O)N1CCC[C@H]1C(=O)N[C@@H](CO)C(N)=O` [Example 67], the EC50 was 0.0417 nM at hGIPR (setting [1]); greater than 9950 nM on hGCGR (setting [4]); greater than 9950 nM at hGCGR (setting [5]); 12 nM at hGLP-1R (0.1% bovine casein and 1.0% human serum albumin, 37° C., read-out: hGLP-1R EC50, nM (SEM, n)); 2.63 nM at hGLP-1R (cAMP, incubated at 37° C., 0.1% bovine casein (no human serum albumin), read-out: hGLP-1R EC50, nM (SEM, n)). Moreover, the values for the Emax at hGIPR (setting [2]), at hGIPR (setting [3]) and at hGLP-1R (setting [6]) were 91.9%, 95% and 91.7%, respectively.
In the case of `CC[C@H](C)[C@H](NC(=O)[C@H](CC(C)C)NC(=O)[C@](C)(Cc1ccc(O)cc1)NC(=O)[C@@H](CCC(=O)O)NC(=O)[C@@H](NC(=O)[C@](C)(Cc1ccccc1F)NC(=O)[C@H](CCC(=O)O)NC(=O)C(C)(C)NC(=O)[C@H](CCC(N)=O)NC(=O)[C@H](C)NC(=O)[C@H](CCCCNC(=O)COCCOCCNC(=O)COCCOCCNC(=O)CC[C@H](NC(=O)CCCCCCCCCCCCC(=O)O)C(=O)O)NC(=O)[C@H](CCCN)NC(=O)[C@H](CC(=O)O)NC(=O)[C@H](CC(C)C)NC(=O)[C@](C)(CC(C)C)NC(=O)[C@@H](NC(=O)[C@H](CO)NC(=O)[C@H](Cc1ccncc1)NC(=O)[C@H](CC(=O)O)NC(=O)[C@H](CO)NC(=O)[C@@H](NC(=O)[C@](C)(Cc1ccccc1F)NC(=O)[C@@H](NC(=O)CNC(=O)[C@H](CCC(=O)O)NC(=O)C(C)(C)NC(=O)[C@@H](N)Cc1ccc(O)cc1)[C@@H](C)O)[C@@H](C)O)[C@@H](C)CC)[C@@H](C)CC)C(=O)N[C@@H](CCC(=O)O)C(=O)NCC(=O)NCC(=O)N[C@@H](CCCCNC(=O)COCCOCCNC(=O)COCCOCCNC(=O)CC[C@H](NC(=O)CCCCCCCCCCCCC(=O)O)C(=O)O)C(=O)N[C@@H](CO)C(=O)N[C@@H](CO)C(=O)NCC(=O)N[C@@H](C)C(=O)N1CCC[C@H]1C(=O)N1CCC[C@H]1C(=O)N1CCC[C@H]1C(=O)N[C@@H](CO)C(N)=O` [Example 88], the EC50 is 0.591 nM on hGIPR (setting [1]), greater than 9950 nM at hGCGR (setting [4]) and greater than 9950 nM on hGCGR (setting [5]). For the same molecule, the maximal response (Emax) on hGIPR (setting [2]) is 80.3%; on hGIPR (setting [3]) it was 85.1%; at hGLP-1R (setting [6]) it was 97.1%.
For `CCCC[C@H](NC(=O)[C@H](CC(=O)O)NC(=O)[C@H](CO)NC(=O)[C@@H](NC(=O)[C@](C)(Cc1ccccc1F)NC(=O)[C@@H](NC(=O)CNC(=O)[C@H](CCC(=O)O)NC(=O)C(C)(C)NC(=O)[C@@H](N)Cc1ccc(O)cc1)[C@@H](C)O)[C@@H](C)O)C(=O)N[C@@H](CO)C(=O)N[C@H](C(=O)N[C@@](C)(CC(C)C)C(=O)N[C@@H](CC(C)C)C(=O)N[C@@H](CC(=O)O)C(=O)N[C@@H](CCCN)C(=O)N[C@H](C(=O)N[C@@H](C)C(=O)N[C@@H](CCC(N)=O)C(=O)NC(C)(C)C(=O)N[C@@H](CCC(=O)O)C(=O)N[C@@H](Cc1ccccc1)C(=O)N[C@H](C(=O)N[C@@H](CCCCNC(=O)COCCOCCNC(=O)COCCOCCNC(=O)CC[C@H](NC(=O)CCCCCCCCCOc1ccc(C(=O)O)cc1)C(=O)O)C(=O)N[C@@](C)(Cc1ccc(O)cc1)C(=O)N[C@@H](CC(C)C)C(=O)N[C@H](C(=O)N[C@@H](CCCCNC(=O)COCCOCCNC(=O)COCCOCCNC(=O)CC[C@H](NC(=O)CCCCCCCCCOc1ccc(C(=O)O)cc1)C(=O)O)C(=O)NCC(=O)NCC(=O)N1CCC[C@H]1C(=O)N[C@@H](CO)C(=O)N[C@@H](CO)C(=O)NCC(=O)N[C@@H](C)C(=O)N1CCC[C@H]1C(=O)N1CCC[C@H]1C(=O)N1CCC[C@H]1C(=O)N[C@@H](CO)C(N)=O)[C@@H](C)CC)[C@@H](C)CC)[C@@H](C)CC)[C@@H](C)CC` [Example 314], the Emax on hGIPR (HEK293, read-out: hGIPR Emax, % ± SEM, cAMP, 37° C., 0.1% bovine casein, percent of maximal response to GIP(1-42)NH2, arithmetic mean) came out at 100%. Further, the EC50 was greater than 9950 nM on hGCGR (hGCGR EC50, nM (SEM, n), 0.1% bovine casein and 1.0% human serum albumin, 37° C.); greater than 9950 nM on hGCGR (hGCGR EC50, nM (SEM, n), cAMP, 37° C., 0.1% bovine casein (no human serum albumin)); 0.673 nM at hGLP-1R (hGLP-1R EC50, nM (SEM, n), cAMP, 37° C., 0.1% bovine casein (no human serum albumin)).
`CC[C@H](C)[C@H](NC(=O)[C@H](CC(C)C)NC(=O)[C@](C)(Cc1ccc(O)cc1)NC(=O)[C@H](CCC(=O)O)NC(=O)[C@@H](NC(=O)[C@H](Cc1ccccc1)NC(=O)[C@H](CCC(=O)O)NC(=O)C(C)(C)NC(=O)[C@H](CCC(N)=O)NC(=O)[C@H](C)NC(=O)[C@H](CCCCNC(=O)COCCOCCNC(=O)COCCOCCNC(=O)CC[C@H](NC(=O)CCCCCCCCCCCCC(=O)O)C(=O)O)NC(=O)[C@H](CCCN)NC(=O)[C@H](CC(=O)O)NC(=O)[C@H](CC(C)C)NC(=O)[C@](C)(CC(C)C)NC(=O)[C@@H](NC(=O)[C@H](CO)NC(=O)[C@H](Cc1ccncc1)NC(=O)[C@H](CC(=O)O)NC(=O)[C@H](CO)NC(=O)[C@@H](NC(=O)[C@](C)(Cc1ccccc1F)NC(=O)[C@@H](NC(=O)CNC(=O)[C@H](CCC(=O)O)NC(=O)C(C)(C)NC(=O)[C@@H](N)Cc1ccc(O)cc1)[C@@H](C)O)[C@@H](C)O)[C@@H](C)CC)[C@@H](C)CC)C(=O)N[C@@H](CCC(=O)O)C(=O)NCC(=O)NCC(=O)N[C@@H](CCCCNC(=O)COCCOCCNC(=O)COCCOCCNC(=O)CC[C@H](NC(=O)CCCCCCCCCCCCC(=O)O)C(=O)O)C(=O)N[C@@H](CO)C(=O)N[C@@H](CO)C(=O)NCC(=O)N[C@@H](C)C(=O)N1CCC[C@H]1C(=O)N1CCC[C@H]1C(=O)N1CCC[C@H]1C(=O)N[C@@H](CO)C(N)=O` [Example 158]: the Emax on hGIPR (HEK293, read-out: hGIPR Emax, % ± SEM, percent of maximal response to GIP(1-42)NH2, 37° C., 0.1% bovine casein, arithmetic mean) worked out at 93.4%; on hGLP-1R (HEK293, read-out: hGLP-1R Emax, % ± SEM, percent of maximal response to GLP-1(7-36)NH2, 37° C.) it was 87.2%. Moreover, the EC50 is 0.0204 nM at hGIPR (hGIPR EC50, nM (SEM, n), cAMP, incubated at 37° C., 0.1% bovine casein (no human serum albumin)) and greater than 9950 nM at hGCGR (hGCGR EC50, nM (SEM, n), cAMP, incubated at 37° C., 0.1% bovine casein (no human serum albumin)).

As a reminder, the EC50 is the midpoint of the concentration-response curve. By Emax is commonly meant the greatest response seen or fitted, relative to the assay's reference.
